From patent US20050079495A1, “Modified tachykinin receptors” (priority 2000, published 2005)

Assays:
[1] = system: functional G-protein Ca^2+ linked pathway; assay: Fura-2 calcium imaging, UTP challenge of COS-7 cells; type: cell-based, monkey; conditions: UTP 3μM, 1 min
Procedure: Coverslips containing cells were prepared and maintained as described. Cultured cells were washed twice in a Krebs-Hepes extra-cellular medium buffer (EM, composition in mM: NaCl 118, KCl 4.7, MgSO4 1.2, CaCl2 1.2, KH2PO4 1.2, Hepes 10, glucose 11 and BSA 0.1%, (pH 7.2 at 20° C., (Rossant, et al Endocrinology, 140, 1525-1536), and then loaded with Fura-2 (Rossant, et al Endocrinology, 140, 1525-1536) by incubation for 3 h at 20° C. with EM containing Fura-2-AM (2 μM, Molecular Probes). This procedure enables the cells to load with Fura-2-AM, which becomes hydrolysed to the free acid form once inside the intact cells. After loading, coverslips were mounted into imaging chambers and perfused with EM to remove extra-cellular Fura-2-AM and to allow hydrolysis of intracellular Fura-2-AM to occur. Measurements of changes in the free [Ca^2+]i in individual cells were made from the fluorescence ratio (excitations 340 nm/380 nm, emission >510 nm) using a Spectral Wizard monochromator, cooled integrating CCD camera and a dedicated suite of software (Merlin, Life Sciences Resources, Cambridge, UK). Data are expressed as ratio units 340/380.
Genes encoding wild type sense, wild type anti-sense and variant NK-1 receptors described above were transiently transfected into COS-7 (monkey kidney) cell lines.

[2] = system: wild type anti-sense transfected COS-7 cells; assay: Fura-2 calcium imaging, COS-7 cells transfected with wild type anti-sense construct (negative control); type: cell-based, monkey; conditions: COS-7 cells expressing wild type anti-sense, substance P 1 nM
Procedure: The resulting cDNA was excised from the parental vector, spliced into a mammalian expression vector, pCMV3.1 (Invitrogen). This cDNA was in an orientation which allowed expression of the hNK-1vR polypeptide. Stock plasmid was prepared by amplification in E. coli and the plasmid DNA subsequently purified using a Qiagen endonuclease free DNA preparation kit, and the fidelity of the construct confirmed by DNA sequencing. The nucleic acid sequence of the cDNA is SEQ ID N^o6 (FIG. 2) and the translated protein sequence is SEQ ID N^o5 (FIG. 1). Similarly control (negative control) constructs were prepared whereby wild type and variant HNK-1R cDNA was spliced into the vector in an opposite configuration to that described above. A further control (positive control) was prepared by ligation of the parental wild type hNK-1R cDNA into the vector in a manner which would allow hNK-1R polypeptide to be expressed. […]
Coverslips containing cells were prepared and maintained as described. […] Measurements of changes in the free [Ca^2+]i in individual cells were made from the fluorescence ratio (excitations 340 nm/380 nm, emission >510 nm) using a Spectral Wizard monochromator, cooled integrating CCD camera and a dedicated suite of software (Merlin, Life Sciences Resources, Cambridge, UK). Data are expressed as ratio units 340/380. […]

Row | Compound | [Ca^2+]i response to UTP challenge [1] | Ca^2+ response to substance P challenge [2]
1 | O=c1ccn([C@@H]2O[C@H](COP(=O)(O)OP(=O)(O)OP(=O)(O)O)[C@@H](O)[C@H]2O)c(=O)[nH]1 [UTP] | caused a [Ca^2+]i response | –
2 | H-Arg-Pro-Lys-Pro-Gln-Gln-Phe-Phe-Gly-Leu-Met-NH2 [substance P] | – | failed to invoke a Ca^2+ response
